Test system: Male NSA mice
Assay: In vivo determination of behavioral effects (motor activity / MK-801 hyperactivity), minimum effective dose
Settings: p.o., lowest dose significantly different from vehicle control (distance traveled)
Description: Animals and Apparatus. Male NSA mice (Harlan; San Deigo, Calif.) were used as subjects. Mice weighed 20-30 g. Animals were housed 8/cage in the One Cage system (One Cage; Lab Products, Inc., Seaford, Del.) with bedding (⅛ inch Bed “O” Cob; Harlan Teklad, Madison, Wis.) in a room with controlled temperature 22±3° C. and a 12 hour light:dark cycle (lights on 6 am). Water and standard rodent chow (Harlan Teklad) were continuously available in the home cage. For testing, plastic locomotor activity cages (20×20×30 cm; AccuScan Instruments, Columbus, Ohio) were equipped with photocell beams for monitoring horizontal activity. Data were collected using Versamax computer software (AccuScan Instruments).
For determination of spontaneous activity, test compounds were administered alone (s.c. 10 min or p.o. 30 min before the session). For hyperactivity experiments, mice were injected with 0.3 mg/kg MK-801 i.p. 15 min presession (the peak dose for producing hyperactivity in an inverted-U dose-effect curve as determined in pilot experiments) in combination with vehicle or test compound. Motor activity data were collected during a 15 min session in a lit room. Mice had no prior exposure to the motor cages. Each dose or dose combination was tested in a separate group of mice (n=8).
Distance traveled (cm) was calculated and averaged across animals in a group. […]

## CC(C)COc1ccc(CC(=O)N(Cc2ccc(F)cc2)C2CCN(CCCN3C(=O)OC[C@@H]3C(C)C)CC2)cc1.O=C(O)C(=O)O [117NLS01, N-(4-Fluorobenzyl)-2-(4-isobutoxyphenyl)-N-{1-[3-(4-(S)-isopropyl-2-oxo-oxazolidin-3-yl)propyl]piperidin-4-yl}acetamide]
  MED in vivo po: 1 mg/kg

— patent US7538222B2, “N-substituted piperidine derivatives as serotonin receptor agents” (ACADIA Pharmaceuticals, Inc., priority 2002, dated 2009)
